This note sets out measurements from patent US10512624B2, “Long-chain amphipathic dicarboxylic acids for treatment of diabetes type-1” (Syndromex Ltd., priority 2016, dated 2019).

This assay relates to NOD mice. As to the kind of experiment: Prevention of overt type 1 diabetes (T1D) in NOD mice. It is filed as in vivo, mouse. The procedure: NOD/LtJ mice (Harlan Laboratories) were bred in-house under pathogen-free conditions. Female mice (3-week old) were fed ad libitum from weaning on with standard chow (Harlan Teklad 2018), or with MEDICA16αα diet (0.04% (w/w) MEDICA16αα mixed in Teklad 2018, yielding a dose of 40 mg MEDICA16αα per kg body weight per day). Mice were monitored weekly for body weight and food consumption. Tail vein blood glucose was verified weekly from week 10th on, on a set day and hour. Mice were considered diabetic if presenting non-fasting blood glucose levels >300 mg/dl for 3 consecutive days. Diabetic mice were euthanized, and blood and tissues were sampled for further studies.

Each structure is given as a SMILES string.

Turning to `CC(C)(CCCCCCCCCCCCC(C)(C)C(=O)O)C(=O)O` [MEDICA16αα, 2,2,15,15-tetramethylhexadecane-1,16-dioic acid], the “decrease in body weight gain” value (NOD mice, 40 mg/kg per day in feed) was found to be 40%. Further, where the note is “oral in feed 40 mg/kg per day from weaning, 21 weeks (until week 26), 32% in non-treated group”, the “NOD mice in which development of T1D was delayed or prevented” value is on record as 71%.
